Test results published in patent US20250179051A1, “PYRIMIDINLY-OXY-QUINOLINE BASED HERBICIDAL COMPOUNDS” (SYNGENTA CROP PROTECTION AG, priority 2022, published 2025).

Assays:
Type in all cases: in vivo
Details in all cases: 250 g/ha, evaluated after 13 days, five-point scale
[1] = system: Amaranthus palmeri (AMAPA); experiment: Post-emergence herbicide glasshouse test
Procedure, shortened: (§1)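 Glasshouse spray test at 250 g/ha, pre- or post-emergence (1 or 8 days after sowing). Percent injury scored 1–5 after 13 days.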

[2] = system: Amaranthus retoflexus (AMARE); experiment: Post-emergence herbicide glasshouse test
Procedure, shortened: as §1

[3] = system: Echinochloa crus-galli (ECHCG); experiment: Post-emergence herbicide glasshouse test
Procedure, shortened: as §1

[4] = system: Ipomoea hederacea (IPOHE); experiment: Post-emergence herbicide glasshouse test
Procedure, shortened: as §1

[5] = system: Setaria faberi (SETFA); experiment: Post-emergence herbicide glasshouse test
Procedure, shortened: as §1

[6] = system: Amaranthus palmeri (AMAPA); experiment: Pre-emergence herbicide glasshouse test
Procedure, shortened: as §1

[7] = system: Amaranthus retoflexus (AMARE); experiment: Pre-emergence herbicide glasshouse test
Procedure, shortened: as §1

[8] = system: Echinochloa crus-galli (ECHCG); experiment: Pre-emergence herbicide glasshouse test
Procedure, shortened: as §1

[9] = system: Ipomoea hederacea (IPOHE); experiment: Pre-emergence herbicide glasshouse test
Procedure, shortened: as §1

[10] = system: Setaria faberi (SETFA); experiment: Pre-emergence herbicide glasshouse test
Procedure, shortened: as §1

FC(F)(F)c1nc(-c2ncccn2)c2c(Oc3ncc(Cl)cn3)cccc2n1 [Compound 1.069]
1 (1=0-20%): percentage damage caused to the plant, AMAPA [1] | percentage damage caused to the plant, AMARE [2] | percentage damage caused to the plant, ECHCG [3] | percentage damage caused to the plant, IPOHE [4] | percentage damage caused to the plant, SETFA [5] | percentage damage caused to the plant, AMAPA [6] | percentage damage caused to the plant, AMARE [7] | percentage damage caused to the plant, ECHCG [8] | percentage damage caused to the plant, IPOHE [9] | percentage damage caused to the plant, SETFA [10]

O=C(c1ccc(Cl)cn1)c1nc(C(F)(F)F)nc2cccc(Oc3ncc(Cl)cn3)c12 [Compound 1.070]
5 (5=81-100%): percentage damage caused to the plant, AMAPA [6] | percentage damage caused to the plant, AMARE [7]
2 (2=21-40%): percentage damage caused to the plant, AMARE [2]
1 (1=0-20%): percentage damage caused to the plant, AMAPA [1] | percentage damage caused to the plant, ECHCG [3] | percentage damage caused to the plant, IPOHE [4] | percentage damage caused to the plant, SETFA [5] | percentage damage caused to the plant, ECHCG [8] | percentage damage caused to the plant, IPOHE [9] | percentage damage caused to the plant, SETFA [10]

FC(F)(F)CCC(Br)c1nc(C(F)(F)F)nc2cccc(Oc3ncc(Cl)cn3)c12 (stereo not drawn) [Compound 1.071]
3 (3=41-60%): percentage damage caused to the plant, IPOHE [4]
5 (5=81-100%): percentage damage caused to the plant, AMAPA [1] | percentage damage caused to the plant, AMARE [2] | percentage damage caused to the plant, ECHCG [3] | percentage damage caused to the plant, AMAPA [6] | percentage damage caused to the plant, AMARE [7] | percentage damage caused to the plant, ECHCG [8] | percentage damage caused to the plant, SETFA [10]
1 (1=0-20%): percentage damage caused to the plant, IPOHE [9]
4 (4=61-80%): percentage damage caused to the plant, SETFA [5]
